Results on 1 compound are retold here after US6989375B2, “Enhanced expression of transgenes” (priority 1996, dated 2006).

SMILES strings stand for the structures.

Test [1] concerns p53 protein in H1299 cells. The experiment in a line: p53 immunocytochemical staining. It is filed as cell-based, human. The following applies: 24 hrs after p53 gene transfer (MOI=5); prior CDDP exposure. As to the method: The infected cells were fixed 3.8% formalin at 12 and 24 hrs after transfection with Adv/CMV/p53 (MOI=5) with or without prior CDDP exposure and treated with 3% H2O2 in methanol for 5 minutes. The Vectastain kit (Vector Laboratories, Burlingana, Calif.) was used for the immunocytochemical staining. The primary antibody used was the mouse monoclonal anti-p53 antibody Pab 1801 (Oncogene Science, Manhasset, N.Y.). The secondary antibody was the biotinylated anti-mouse IgG antibody (Vector Laboratories). The avidin-biotin-peroxidase complex (ABC) kit was used to detect the antigen-antibody complex. The cells were counterstained with Harris Hematoxylin (Sigma, St. Louis, Mo.) and mounted with cover slips using Cytoseal 60.

The test system of test [2] is H460 cells. The experiment in a line: Cell growth after 24-hour incubation with CDDP. It is filed as cell-based, human.
Test [3] relates to H460 cells. The experiment in a line: β-gal expression by X-gal staining after Ad/CMV/β-gal infection of CDDP-treated cells. Type of test: cell-based, human. Here is the method:
Gene Delivery Protocol: In vitro gene delivery was performed by incubating cells in six-well plates (Falcon Plastics, Lincoln Park, N.J.) for two hours with Adv/CMV/β-gal in appropriate medium supplemented with 2% FCS. The multiplicity of infection (MOI: number of viral particles per target cell) was based on cell counts of untreated wells. Fresh, complete medium with the appropriate concentration of FCS was then added to the wells at the end of the infection period and cells were then incubated for 20 hours at 37° C., 5% CO2. After washing the cells with ice cold PBS, the cells were fixed with ice-cold 1.25% glutaraldehyde and stained with X-gal (5-bromo-4-chloro-3-indolyl-β-d-galactoside; Gibco BRL) as previously described (MacGregor et al., 1987). The transduction efficiency by Adv/CMV/β-gal was determined by the percentage of positive stained cells (blue) for β-galactosidase activity (1000 cells counted per well).
Time Course and Dose Response: To determine the time course of enhancement, H1299 and H460 cells were seeded in 6-well plates (2×10^5 cells/2 mls/well). After an overnight incubation period (37° C., 5% CO2), the initial medium was replaced with freshly prepared media (2 ml) containing 0.062 μg/ml CDDP (Sigma Chemicals, St. Louis, Mo.) (CDDP was prepared fresh by dissolving in distilled water) and the cells were then incubated for 24 hours at 37° C., with 5% CO2. CDDP-treated cells were then washed twice with PBS and subsequently infected with Ad/CMV/β-gal (MOI=1 for H1299 and MOI=5 for H460) on days 0, 1, 2, 3, 4, 5 or 6 following CDDP removal, to determine the time point at which maximal enhancement of expression was occurring. To establish the dose of CDDP needed to produce maximum enhancement, the cells were treated with different concentrations of CDDP (serial, 1:4 dilutions, ranging from 4 μg/ml to 0.0002 μg/ml, 5 ml per 60 mm dish) for 24 hours and subsequently incubated with Ad/CMV/β-gal 48 hours after removal of CDDP. […]

Test [4] has as its system H1299 cells. The experiment in a line: Quantitation of β-gal gene expression by ONPG assay at increasing MOI. As to conditions: for Enhancement index: CDDP 0.062 μg/ml×24 h; for β-gal activity (ONPG): CDDP = cells treated 0.062 μg/ml×24 h, infected 2 days later, Ad/CMV/β-gal = control cells without CDDP. It is filed as cell-based, human. Here is the method:
(§1) Quantitation of β-gal Gene Expression: Adenoviral infection was performed 2 days after exposure to CDDP (0.062 μg/ml×24 hours), with cell extracts being obtained 24 hours later and quantitatively assayed for the expression of the β-galactosidase gene using O-nitrophenyl β-d-galactoside (ONPG) as a substrate (MacGregor et al., 1987). The magnitude of CDDP-induced enhancement of gene expression at a given MOI was determined by calculating the enhancement index: [formula] In Vivo CDDP-Induced Enhancement of β-gal Gene Expression
(§2) To determine if prior incubation of target cells with CDDP would result in an increase in the ability of cells to take up gene-delivering vectors or an increase in the expression of successfully delivered genes, β-gal gene expression was quantitated in H1299 and H460 cell lines treated with CDDP and then infected with Ad/CMV/β-gal at increasing MOI's. If CDDP mediates an enhancement of adenovirus uptake as compared to non-treated controls, then there should be a proportional increase in enhancement indices with increasing MOI's. […] Similarly, β-gal gene expression in CDDP-treated H460 cells increased from 0.28±0.06 to 12.2±2.1 U/mg protein, as compared to β-gal gene expression in control H460 cells of 0.056±0.016 to 7.6±1.8 U/mg protein. The enhancement indices in H460 cells, therefore, decreased from a value of 5 at an MOI of 5, to a value of 1.6 at an MOI of 100 (FIG. 2B). This observation implies that CDDP induces an increase in the expression of successfully delivered genes and not an increase in adenovirus uptake.

Test [5] deals with H460 cells. Described as above. It is filed as cell-based, human. The following applies: for β-gal gene expression (ONPG): CDDP = treated cells, Ad/CMV/β-gal = control cells without CDDP. As to the method:
as §1, §2

Test [6] relates to primary human foreskin fibroblasts. The following applies: 16 to 20 hours exposure to high concentrations, followed immediately by transduction; cited from earlier work.
Test [7] deals with CDDP-resistant ovarian carcinoma cells (2008). As to conditions: CDDP four to six weeks prior (in vitro) or once one week prior (in vivo); cited from earlier work.
Test [8] has as its system H1299 cells. The experiment in a line: Cell growth after 24-hour incubation with CDDP. Type of test: cell-based, human.
[9] abbreviates: CDDP at 1 and 4 μg/ml for 24 hours, cells viable by trypan blue exclusion.
Where [10] appears, read: CDDP concentrations lower than 0.25 μg/ml.

For `N.N.[Cl][Pt][Cl]` [CDDP, cis-dichlorodimminocisplatin], the p53 immunocytochemical staining entry in test [1] was “almost all of the CDDP-treated cells stained positive”. The “Cell growth, initial response” value with H460 cells [2] (setting [9]) and with H1299 cells [8] (setting [9]) was “significant depression of growth to complete inhibition of proliferation” in each case. Further, the “Cell growth compared to control cell populations” value with H460 cells [2] (setting [10]) and in the test on H1299 cells [8] (setting [10]) was “remained unchanged” each time. Also, the “CDDP concentration at which maximal enhancement of β-gal gene expression occurred” value in the test with H460 cells [3] (24 h exposure, infected 48 hours after CDDP removal) was 0.062 µg/mL. For the same compound, the “Time of gene transfer after drug treatment for maximal enhancement” value in the test on H460 cells [3] (CDDP 0.062 μg/ml) is “about 48 hours”. Besides, the “Enhancement of β-gal gene expression” value with H460 cells [3] (CDDP at 0.0039 and 1 μg/ml, infected 48 hours after CDDP removal) is on record as “also an enhancement”. The Enhancement index is reported as 3 in the test with H1299 cells [4] (MOI 5), 2.5 in the test with H1299 cells [4] (MOI 100), 5 in the test with H460 cells [5] (MOI of 5) and 1.6 with H460 cells [5] (MOI of 100). Besides, the “β-gal activity (ONPG)” value amounted to 2.2±0.40 U/mg protein in the test with H1299 cells [4] (MOI 5) and 42.0±2.6 U/mg protein in the test with H1299 cells [4] (MOI 100). For the same compound, the “β-gal gene expression (ONPG)” value in the test on H460 cells [5] (MOI 5) came to 0.28±0.06 U/mg protein; in the test with H460 cells [5] (MOI 100) it was 12.2±2.1 U/mg protein. For the same compound, the “Susceptibility to AAV transduction” value in test [6] is given as “more susceptible to transduction”. Besides, the “Gene transduction after CDDP exposure prior to liposome-mediated gene transfer” value in test [7] was “enhanced gene transduction”.
